“Also recorded” adds a separate entry of the source.
How the values were obtained:
cells = experiment: Cell apoptosis analysis (Annexin V/PI flow cytometry); format: cell-based; conditions: 48 h
Procedure: Cell apoptosis was detected using FITC Annexin V Apoptosis Detection Kit (BD Biosciences) according to manufacturer's instructions. Briefly, cells were incubated with indicated concentrations of 69, 70 and 97, CA-4 as positive control or diluent (0.2% DMSO) as negative control for 48 h. Then the cells were harvested, washed twice with PBS, and re-suspended in binding buffer. After being stained with Annexin-V and PI for 15 min in the dark place, cells were subjected to flow cytometry (Cytomics FC 500 MPL, Beckman Coulter) analysis. The results were indicated as mean values from three independent determinations.

Acute toxicity assay = format: in vivo; conditions: both sexes, mouse, in vivo, ip; KM mice, single intraperitoneal injection, 14 days
Procedure: (§1) KM mice were housed individually in a specific pathogen free facility. Groups of mice (n=10 per group, half male and half female) were injected intraperitoneally once with various dosages of 69 (95, 70, 50, 35, 25 mg/kg), 70 (500, 425, 350, 275, 200 mg/kg), 97 (275, 200, 150, 125 and 100 mg/kg) or vehicle (8.3% cremohorp EL and 8.3% alcohol in PBS) as negative control, respectively. 69, 70 and 97 was dissolved in cremeohore EL and alcohol mixture (1:1, v/v) and further diluted with PBS (1:5, v/v). The death of mice were monitored daily and recorded up to 14 days after injection.

KM mice = experiment: Acute toxicity assay; format: in vivo; conditions: for No. of dead mice 5-14 days / No. of dead mice 1 day / No. of dead mice 2 days / No. of dead mice 3 days / No. of dead mice 4 days / Survival (%) on day 14 / Total death: single i.p. injection
Procedure: as §1

[1] = tested on: p-histone H3, cyclin B1 and BuBR1 in HeLa cells; experiment: Cell cycle associated proteins assay; format: cell-based, human; conditions: 24 h, western blot and qPCR
Procedure: A. HeLa cells were treated with 69, 70, 97 or DMSO for 24 h. After being harvested, the cells were lysed, and the concentrations of total protein were determined by BCA protein assay kit (Beyotime, China). […] The membrane was blocked with 5% BSA in TBST for 1.5 h, then incubated overnight with specific primary antibodies (Proteintech) at 4° C. After being washed three times by TBST, the membrane was incubated with specific secondary antibodies (Abnova, Taipei, China) at room temperature for 2 h. Finally, chemiluminescent reagents (Millipore) were employed to detect the protein bands.
B. Quantitative PCR assay: HeLa cells were treated with 69, 70 or 97. The expression level of mRNA of target proteins was tested with qPCR kit (Takara).

SKOV3 = experiment: In vitro cell growth inhibition assay (MTT); format: cell-based, human; conditions: SK-OV-3; SKOV-3 human ovarian cancer cell line, 48 h, MTT; read-out: IC50 SKOV3
In short: (§2)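 Following overnight adherence of 5000 cells per well, compounds or 0.2% DMSO were applied for 48 h. Medium was then swapped for 0.5 mg/mL MTT medium (4 h, 37° C), crystals dissolved in DMSO, and plates read at 540 nm.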

MDA-MB-231 = experiment: In vitro cell growth inhibition assay (MTT); format: cell-based, human; conditions: MDA-MB-231 human breast cancer cell line, 48 h, MTT; read-out: IC50 MDA-MB-231
In short: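 IC50 values come from growth inhibition rates calculated from MTT absorbance at 540 nm. Compound exposure lasted 48 h on cells plated at 5000 per well.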

Hela = experiment: In vitro cell growth inhibition assay (MTT); format: cell-based, human; conditions: Hela human cervical cancer cell line, 48 h, MTT; read-out: IC50 Hela
In short: as §2

A2780 = experiment: In vitro cell growth inhibition assay (MTT); format: cell-based, human; conditions: A2780 human ovarian cancer cell line, 48 h, MTT; read-out: IC50 A2780
In short: as §2

In the case of `COc1ccc([C@H]2[C@@H](C)C(=O)N2c2cc(OC)c(OC)c(OC)c2)cc1O` [Compound 70, (3R,4R)-4-(3-hydroxy-4-methoxyphenyl)-3-methyl-1-(3,4,5-trimethoxyphenyl)azetidin-2-one], the cellular apoptosis (cells) is reported as “significantly promote apoptosis; also recorded: significantly induce cellular apoptosis”, the LD50 at 14 days (Acute toxicity assay) is reported as over 500 mg/kg and the “No. of dead mice 5-14 days” value (KM mice; 200 mg/kg) is reported as 0. The “No. of dead mice 1 day” value (KM mice; 200 mg/kg) was 0, the “No. of dead mice 2 days” value (KM mice; 200 mg/kg) was 0 and the “No. of dead mice 3 days” value (KM mice; 200 mg/kg) was 0. The “No. of dead mice 4 days” value (KM mice; 200 mg/kg) was 0, the “Survival (%) on day 14” value (KM mice; 200 mg/kg) was 100% and the Total death (KM mice; 200 mg/kg) was 0. The “No. of dead mice 5-14 days” value (KM mice; 275 mg/kg) was 1, the “No. of dead mice 1 day” value (KM mice; 275 mg/kg) was 0 and the “No. of dead mice 2 days” value (KM mice; 275 mg/kg) was 0. The “No. of dead mice 3 days” value (KM mice; 275 mg/kg) was 0, the “No. of dead mice 4 days” value (KM mice; 275 mg/kg) was 1 and the “Survival (%) on day 14” value (KM mice; 275 mg/kg) was 80%. The Total death (KM mice; 275 mg/kg) was 2, the “No. of dead mice 5-14 days” value (KM mice; 350 mg/kg) was 0 and the “No. of dead mice 1 day” value (KM mice; 350 mg/kg) was 0. For the same compound, the “No. of dead mice 2 days” value (KM mice; 350 mg/kg) was 0, the “No. of dead mice 3 days” value (KM mice; 350 mg/kg) was 1 and the “No. of dead mice 4 days” value (KM mice; 350 mg/kg) was 0. For the same compound, the “Survival (%) on day 14” value (KM mice; 350 mg/kg) was 90%, the Total death (KM mice; 350 mg/kg) was 1 and the “No. of dead mice 5-14 days” value (KM mice; 425 mg/kg) was 0. The “No. of dead mice 1 day” value (KM mice; 425 mg/kg) was 0, the “No. of dead mice 2 days” value (KM mice; 425 mg/kg) was 0 and the “No. of dead mice 3 days” value (KM mice; 425 mg/kg) was 3. The “No. of dead mice 4 days” value (KM mice; 425 mg/kg) was 0, the “Survival (%) on day 14” value (KM mice; 425 mg/kg) was 70% and the Total death (KM mice; 425 mg/kg) was 3. For the same compound, the “No. of dead mice 5-14 days” value (KM mice; 500 mg/kg) was 0, the “No. of dead mice 1 day” value (KM mice; 500 mg/kg) was 0 and the “No. of dead mice 2 days” value (KM mice; 500 mg/kg) was 0. The “No. of dead mice 3 days” value (KM mice; 500 mg/kg) was 4, the “No. of dead mice 4 days” value (KM mice; 500 mg/kg) was 0 and the “Survival (%) on day 14” value (KM mice; 500 mg/kg) was 60%. For the same compound, the Total death (KM mice; 500 mg/kg) was 4, the “expression of p-histone H3, cyclin B1 and BuBR1” value (from here on “expression of p-histone H3”) [1] was “significantly promote the expression of phosphorylated histone H3, cyclinB1, and mitotic checkpoint protein BuBR1; also recorded: significantly induce the expression of p-histone H3, cyclin B1 and BuBR1” and the IC50 (SKOV3) was 51 nM. The IC50 (MDA-MB-231) was 67 nM, the IC50 (Hela) was 74 nM and the IC50 (A2780) was 35 nM.

For `COc1ccc([C@H]2[C@H](CO)C(=O)N2c2cc(OC)c(OC)c(OC)c2)cc1O` [Compound 69, (3R,4R)-4-(3-hydroxy-4-methoxyphenyl)-3-(hydroxymethyl)-1-(3,4,5-trimethoxyphenyl)azetidin-2-one], the cellular apoptosis (cells) was “significantly promote apoptosis; also recorded: significantly induce cellular apoptosis”, the “No. of dead mice 5-14 days” value (KM mice; 25 mg/kg) was 0 and the “No. of dead mice 1 day” value (KM mice; 25 mg/kg) was 0. For the same compound, the “No. of dead mice 2 days” value (KM mice; 25 mg/kg) was 0, the “No. of dead mice 3 days” value (KM mice; 25 mg/kg) was 0 and the “No. of dead mice 4 days” value (KM mice; 25 mg/kg) was 0. For the same compound, the “Survival (%) on day 14” value (KM mice; 25 mg/kg) was 100%, the Total death (KM mice; 25 mg/kg) was 0 and the “No. of dead mice 5-14 days” value (KM mice; 35 mg/kg) was 0. The “No. of dead mice 1 day” value (KM mice; 35 mg/kg) was 0, the “No. of dead mice 2 days” value (KM mice; 35 mg/kg) was 0 and the “No. of dead mice 3 days” value (KM mice; 35 mg/kg) was 1. The “No. of dead mice 4 days” value (KM mice; 35 mg/kg) was 0, the “Survival (%) on day 14” value (KM mice; 35 mg/kg) was 90% and the Total death (KM mice; 35 mg/kg) was 1. For the same compound, the “No. of dead mice 5-14 days” value (KM mice; 50 mg/kg) was 0, the “No. of dead mice 1 day” value (KM mice; 50 mg/kg) was 0 and the “No. of dead mice 2 days” value (KM mice; 50 mg/kg) was 0. For the same compound, the “No. of dead mice 3 days” value (KM mice; 50 mg/kg) was 1, the “No. of dead mice 4 days” value (KM mice; 50 mg/kg) was 0 and the “Survival (%) on day 14” value (KM mice; 50 mg/kg) was 90%. For the same compound, the Total death (KM mice; 50 mg/kg) was 1, the “No. of dead mice 5-14 days” value (KM mice; 70 mg/kg) was 1 and the “No. of dead mice 1 day” value (KM mice; 70 mg/kg) was 0. For the same compound, the “No. of dead mice 2 days” value (KM mice; 70 mg/kg) was 0, the “No. of dead mice 3 days” value (KM mice; 70 mg/kg) was 4 and the “No. of dead mice 4 days” value (KM mice; 70 mg/kg) was 2. For the same compound, the “Survival (%) on day 14” value (KM mice; 70 mg/kg) was 30%, the Total death (KM mice; 70 mg/kg) was 7 and the “No. of dead mice 5-14 days” value (KM mice; 95 mg/kg) was 1. The “No. of dead mice 1 day” value (KM mice; 95 mg/kg) was 0, the “No. of dead mice 2 days” value (KM mice; 95 mg/kg) was 0 and the “No. of dead mice 3 days” value (KM mice; 95 mg/kg) was 6. For the same compound, the “No. of dead mice 4 days” value (KM mice; 95 mg/kg) was 1, the “Survival (%) on day 14” value (KM mice; 95 mg/kg) was 20% and the Total death (KM mice; 95 mg/kg) was 8. The LD50 (KM mice; single intraperitoneal injection, 14 days) was 61.5 mg/kg and the “expression of p-histone H3” value [1] was “significantly promote the expression of phosphorylated histone H3, cyclinB1, and mitotic checkpoint protein BuBR1; also recorded: significantly induce the expression of p-histone H3, cyclin B1 and BuBR1”.

For `COc1ccc([C@H]2[C@H](C)C(=O)N2c2cc(OC)c(OC)c(OC)c2)cc1O` [Compound 97, (3S,4R)-4-(3-hydroxy-4-methoxyphenyl)-3-methyl-1-(3,4,5-trimethoxyphenyl)azetidin-2-one], the cellular apoptosis (cells) was “significantly promote apoptosis; also recorded: significantly induce cellular apoptosis”, the “No. of dead mice 5-14 days” value (KM mice; 100 mg/kg) was 0 and the “No. of dead mice 1 day” value (KM mice; 100 mg/kg) was 0. For the same compound, the “No. of dead mice 2 days” value (KM mice; 100 mg/kg) was 0, the “No. of dead mice 3 days” value (KM mice; 100 mg/kg) was 1 and the “No. of dead mice 4 days” value (KM mice; 100 mg/kg) was 0. The “Survival (%) on day 14” value (KM mice; 100 mg/kg) was 90%, the Total death (KM mice; 100 mg/kg) was 1 and the “No. of dead mice 5-14 days” value (KM mice; 125 mg/kg) was 0. The “No. of dead mice 1 day” value (KM mice; 125 mg/kg) was 0, the “No. of dead mice 2 days” value (KM mice; 125 mg/kg) was 2 and the “No. of dead mice 3 days” value (KM mice; 125 mg/kg) was 1. For the same compound, the “No. of dead mice 4 days” value (KM mice; 125 mg/kg) was 0, the “Survival (%) on day 14” value (KM mice; 125 mg/kg) was 70% and the Total death (KM mice; 125 mg/kg) was 3. For the same compound, the “No. of dead mice 5-14 days” value (KM mice; 150 mg/kg) was 0, the “No. of dead mice 1 day” value (KM mice; 150 mg/kg) was 2 and the “No. of dead mice 2 days” value (KM mice; 150 mg/kg) was 4. For the same compound, the “No. of dead mice 3 days” value (KM mice; 150 mg/kg) was 0, the “No. of dead mice 4 days” value (KM mice; 150 mg/kg) was 0 and the “Survival (%) on day 14” value (KM mice; 150 mg/kg) was 40%. For the same compound, the Total death (KM mice; 150 mg/kg) was 6, the “No. of dead mice 5-14 days” value (KM mice; 200 mg/kg) was 0 and the “No. of dead mice 1 day” value (KM mice; 200 mg/kg) was 1. For the same compound, the “No. of dead mice 2 days” value (KM mice; 200 mg/kg) was 4, the “No. of dead mice 3 days” value (KM mice; 200 mg/kg) was 2 and the “No. of dead mice 4 days” value (KM mice; 200 mg/kg) was 0. The “Survival (%) on day 14” value (KM mice; 200 mg/kg) was 30%, the Total death (KM mice; 200 mg/kg) was 7 and the “No. of dead mice 5-14 days” value (KM mice; 275 mg/kg) was 0. For the same compound, the “No. of dead mice 1 day” value (KM mice; 275 mg/kg) was 2, the “No. of dead mice 2 days” value (KM mice; 275 mg/kg) was 4 and the “No. of dead mice 3 days” value (KM mice; 275 mg/kg) was 2. The “No. of dead mice 4 days” value (KM mice; 275 mg/kg) was 1, the “Survival (%) on day 14” value (KM mice; 275 mg/kg) was 10% and the Total death (KM mice; 275 mg/kg) was 9. The “expression of p-histone H3” value [1] was “significantly promote the expression of phosphorylated histone H3, cyclinB1, and mitotic checkpoint protein BuBR1; also recorded: significantly induce the expression of p-histone H3, cyclin B1 and BuBR1”, the IC50 (SKOV3) was 3 nM and the IC50 (MDA-MB-231) was 3 nM. It also gave an IC50 (Hela) of 1 nM and an IC50 (A2780) of 2 nM.
